Results taken from patent US8309721B2, “HSP90 inhibitory carbazole derivatives, compositions containing same and use thereof” (Sanofi, priority 2008, dated 2012).

Experiments:
[1] = system: Her2 receptor expression at the surface of SKBr3 cells; assay: phenotypic SKBr3/HER2 cell test (Her2 surface expression by flow cytometry); type: cell-based; details: Homo sapiens, SK-BR-3, 24 h incubation, inhibition of Her2 expression
Method in brief: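 SKBr3 cells (Her2-overexpressing adenocarcinoma) treated 24 h with compound at varying concentrations, then stained with PE-anti-Her2 antibody 30 min at 4° C; surface Her2 measured by flow cytometry. IC50 from nonlinear fit of % inhibition of Her2 expression versus concentration.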

[2] = target: Hsp82 (Saccharomyces cerevisiae, UniProt P02829); assay: Hsp82/ATPase test (malachite green or PK/LDH coupled method); type: biochemical; details: 1 μM Hsp82, 250 μM ATP, 37° C.; read-out: Hsp82 ATPase IC50
Chain of Hsp82 (P02829 whole entry): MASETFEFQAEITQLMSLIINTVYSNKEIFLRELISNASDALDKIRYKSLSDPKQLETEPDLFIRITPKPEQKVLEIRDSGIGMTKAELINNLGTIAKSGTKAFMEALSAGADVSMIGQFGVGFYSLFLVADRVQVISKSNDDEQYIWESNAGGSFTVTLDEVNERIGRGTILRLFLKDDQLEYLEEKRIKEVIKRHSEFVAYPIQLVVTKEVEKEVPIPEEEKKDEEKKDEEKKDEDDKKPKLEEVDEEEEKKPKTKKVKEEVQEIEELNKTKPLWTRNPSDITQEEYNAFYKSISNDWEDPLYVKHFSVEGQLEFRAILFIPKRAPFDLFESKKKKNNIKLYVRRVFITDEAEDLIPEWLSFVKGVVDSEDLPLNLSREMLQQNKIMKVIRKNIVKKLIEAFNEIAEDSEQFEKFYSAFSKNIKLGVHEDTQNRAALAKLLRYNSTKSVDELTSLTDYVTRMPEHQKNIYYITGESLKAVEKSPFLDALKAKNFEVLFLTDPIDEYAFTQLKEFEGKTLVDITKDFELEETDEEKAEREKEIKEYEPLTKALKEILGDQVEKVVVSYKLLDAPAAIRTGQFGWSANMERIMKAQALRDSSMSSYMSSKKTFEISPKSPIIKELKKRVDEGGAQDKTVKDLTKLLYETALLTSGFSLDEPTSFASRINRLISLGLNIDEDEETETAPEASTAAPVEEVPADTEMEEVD
Description: The biochemical activity of the compounds can in particular be evaluated by means of the “Hsp82/ATPase” test described below: The inorganic phosphate released during the hydrolysis of ATP by the ATPase activity of Hsp82 is quantified by the malachite green method. In the presence of this reagent, formation of the inorganic phosphate-molybdate-malachite green complex, which absorbs at a wavelength of 620 nm, occurs. The products to be evaluated are incubated in a reaction volume of 30 μl, in the presence of 1 μM Hsp82 and of 250 μM of substrate (ATP) in a buffer composed of 50 mM Hepes-NaOH (pH 7.5), 1 mM DTT, 5 mM MgCl2 and 50 mM KCl at 37° C. for 60 min. In parallel, an inorganic phosphate range of between 1 and 40 μM is made up in the same buffer. […] After incubation at ambient temperature for 20 min, the absorbance of the various wells is measured using a microplate reader at 620 nm. The inorganic phosphate concentration of each sample is then calculated from the standard curve. The ATPase activity of Hsp82 is expressed as concentration of inorganic phosphate produced in 60 minutes. The effect of the various products tested is expressed as percentage inhibition of the ATPase activity. The formation of ADP due to the ATPase activity of Hsp82 was used to develop another method for evaluating the enzyme activity of this enzyme by application of an enzymatic coupling system involving pyruvate kinase (PK) and lactate dehydrogenase (LDH). In this kinetic-type spectrophotometric method, PK catalyses the formation of ATP and of pyruvate from phosphoenol pyruvate (PEP) and the ADP produced by Hsp82. The pyruvate formed, which is a substrate for LDH, is subsequently converted to lactate in the presence of NADH. In this case, the decrease in the NADH concentration, measured through the decrease in absorbance at the wavelength of 340 nm, is proportional to the concentration of ADP produced by Hsp82. The products tested are incubated in a reaction volume of 100 μl of buffer composed of 100 mM Hepes-NaOH (pH 7.5), 5 mM MgCl2, 1 mM DTT, 150 mM KCl, 0.3 mM NADH, 2.5 mM PEP and 250 μM ATP. This mixture is preincubated at 37° C. for 30 minutes before the addition of 3.77 units of LDH and 3.77 units of PK. The reaction is initiated by addition of the product to be evaluated, in varying concentrations, and of Hsp82, at the concentration of 1 μM. The enzymatic activity of Hsp82 is then measured continuously, in a microplate reader, at 37° C., at the wavelength of 340 nm. The initial rate of the reaction is obtained by measuring the slope of the tangent to the origin of the curve recorded. The enzymatic activity is expressed in μM of ADP formed per minute. The effect of the various products tested is expressed as percentage inhibition of the ATPase activity according to the codification below: […]

Structure (SMILES) | IC50 [1] | IC50 [2]
Nc1noc2cc(-n3c4ccccc4c4c(-c5nc6ccc(F)cc6[nH]5)cccc43)ccc12 [Example 13, 6-[4-(6-fluoro-1H-benzimidazol-2-yl)-9H-carbazol-9-yl]-1,2-benzisoxazol-3-ylamine] | 1000 to 10000 nM | 1000 to 10000 nM
NC(=O)c1ccc(-n2c3ccccc3c3c(-c4cncc(OCc5ccccc5)c4)cccc32)cc1N[C@H]1CC[C@H](O)CC1 [Example 67, 4-{4-[5-(benzyloxy)pyridin-3-yl]-9H-carbazol-9-yl}-2-[(4-trans-hydroxycyclohexyl)amino]benzamide] | 1000 to 10000 nM | 1000 to 10000 nM
CC(C)(C)OC(=O)NCCC(=O)O[C@H]1CC[C@H](Nc2cc(-n3c4ccccc4c4c(-c5nc6ccc(F)cc6[nH]5)cccc43)ccc2C(N)=O)CC1 [Example 23, 3-tert-butoxycarbonylaminopropionic acid 4-trans-{2-carbamoyl-5-[4-(6-fluoro-1H-benzimidazol-2-yl)-9H-carbazol-9-yl]phenylamino}cyclohexyl ester] | < 1000 nM | 1000 to 10000 nM
C[C@H](NC(=O)OC(C)(C)C)C(=O)O[C@H]1CC[C@H](Nc2cc(-n3c4ccccc4c4c(-c5nc6ccc(F)cc6[nH]5)cccc43)ccc2C(N)=O)CC1 [Example 22, 2(S)-tert-butoxycarbonylaminopropionic acid 4-trans-{2-carbamoyl-5-[4-(6-fluoro-1H-benzimidazol-2-yl)-9H-carbazol-9-yl]phenylamino}cyclohexyl ester] | < 1000 nM | 1000 to 10000 nM
NCCNc1cc(-n2c3ccccc3c3c(-c4nc5ccc(F)cc5[nH]4)cccc32)ccc1C(N)=O [Example 18, 2-(2-aminoethylamino)-4-[4-(6-fluoro-1H-benzimidazol-2-yl)-9H-carbazol-9-yl]benzamide] | 1000 to 10000 nM | < 1000 nM
CCOCCNc1cc(-n2c3ccccc3c3c(-c4nc5ccc(F)cc5[nH]4)cccc32)ccc1C(N)=O [Example 46, 2-(2-ethoxyethylamino)-4-[4-(6-fluoro-1H-benzimidazol-2-yl)-9H-carbazol-9-yl]benzamide] | < 1000 nM | 1000 to 10000 nM
NC(=O)c1ccc(-n2c3ccccc3c3c(-c4ccc(CO)nc4)cccc32)cc1N[C@H]1CC[C@H](O)CC1 [Example 29, 2-[(4-trans-hydroxycyclohexyl)amino]-4-{4-[6-(hydroxymethyl)pyridin-3-yl]-9H-carbazol-9-yl}benzamide] | < 1000 nM | < 1000 nM
NC(=O)c1ccc(-n2c3ccccc3c3c(-c4cnc5ccccc5c4)cccc32)cc1NCCC1(O)CCCC1 [Example 64] | < 1000 nM | < 1000 nM
CCN(CC)CCNc1cc(-n2c3ccccc3c3c(-c4nc5ccc(F)cc5[nH]4)cccc32)ccc1C(N)=O [Example 3, 2-(2-diethylaminoethylamino)-4-[4-(6-fluoro-1H-benzimidazol-2-yl)-9H-carbazol-9-yl]benzamide] | < 1000 nM | < 1000 nM
NCC(CO)Oc1cc(-n2c3ccccc3c3c(-c4nc5ccc(F)cc5[nH]4)cccc32)ccc1C(N)=O (stereo not drawn) [Example 53, 2-(2-amino-1-hydroxymethylethyloxy)-4-[4-(6-fluoro-1H-benzimidazol-2-yl)-9H-carbazol-9-yl]benzamide] | 1000 to 10000 nM | 1000 to 10000 nM
NC(=O)c1ccc(-n2c3ccccc3c3c(-c4nc5ccc(F)cc5[nH]4)cccc32)cc1NCc1ccco1 [Example 48, 4-[4-(6-fluoro-1H-benzimidazol-2-yl)-9H-carbazol-9-yl]-2-[(furan-2-ylmethyl)amino]benzamide] | < 1000 nM | 1000 to 10000 nM
NC(=O)c1ccc(-n2c3ccccc3c3c(-c4nc5ccc(F)cc5[nH]4)cccc32)cc1NC1CCCCC1 [Example 6, 2-cyclohexylamino-4-[4-(6-fluoro-1H-benzimidazol-2-yl)-9H-carbazol-9-yl]benzamide] | < 1000 nM | 1000 to 10000 nM

More lines, now with the values ahead:

IC50 [1] | IC50 [2] | Structure (SMILES)
< 1000 nM | < 1000 nM | NC(=O)c1ccc(-n2c3ccccc3c3c(-c4nc5ccc(F)cc5[nH]4)cccc32)cc1NCCO [Example 42, 4-[4-(6-fluoro-1H-benzimidazol-2-yl)-9H-carbazol-9-yl]-2-(2-hydroxyethylamino)benzamide]
< 1000 nM | 1000 to 10000 nM | CC(=O)O[C@H]1CC[C@H](Nc2cc(-n3c4ccccc4c4c(-c5nc6ccc(F)cc6[nH]5)cccc43)ccc2C(N)=O)CC1 [Example 5, acetic acid 4-{2-carbamoyl-5-[4-(6-fluoro-1H-benzimidazol-2-yl)-9H-carbazol-9-yl]phenylamino}-trans-cyclohexyl ester]
< 1000 nM | 1000 to 10000 nM | NC(=O)c1ccc(-n2c3ccccc3c3c(-c4nc5ccc(F)cc5[nH]4)cccc32)cc1N[C@H]1CC[C@@H](O)CC1 [Example 9, 4-[4-(6-fluoro-1H-benzimidazol-2-yl)-9H-carbazol-9-yl]-2-(4-cis-hydroxycyclohexylamino)benzamide]
< 1000 nM | < 1000 nM | COCCCNc1cc(-n2c3ccccc3c3c(-c4nc5ccc(F)cc5[nH]4)cccc32)ccc1C(N)=O [Example 38, 4-[4-(6-fluoro-1H-benzimidazol-2-yl)-9H-carbazol-9-yl]-2-(3-methoxypropylamino)benzamide]
< 1000 nM | < 1000 nM | CC(O)CNc1cc(-n2c3ccccc3c3c(-c4nc5ccc(F)cc5[nH]4)cccc32)ccc1C(N)=O (racemic) [Example 40, 4-[4-(6-fluoro-1H-benzimidazol-2-yl)-9H-carbazol-9-yl]-2-(2(R,S)-hydroxypropylamino)benzamide]
< 1000 nM | < 1000 nM | NC(=O)c1ccc(-n2c3ccccc3c3c(-c4nc5ccc(F)cc5[nH]4)cccc32)cc1N[C@H]1CC[C@H](O)CC1 [Example 1, 4-[4-(6-fluoro-1H-benzimidazol-2-yl)-9H-carbazol-9-yl]-2-(4-trans-hydroxycyclohexylamino)benzamide]
< 1000 nM | < 1000 nM | NC(=O)c1ccc(-n2c3ccccc3c3c(-c4nc5ccc(F)cc5[nH]4)cccc32)cc1NC(CO)CO [Example 52, 4-[4-(6-fluoro-1H-benzimidazol-2-yl)-9H-carbazol-9-yl]-2-(2-hydroxy-1-hydroxymethylethylamino)benzamide]
< 1000 nM | < 1000 nM | NC(=O)c1ccc(-n2c3ccccc3c3c(-c4ccc(N)nc4)cccc32)cc1N[C@H]1CC[C@H](O)CC1 [Example 20, 4-[4-(6-aminopyridin-3-yl)-9H-carbazol-9-yl]-2-[(4-trans-hydroxycyclohexyl)amino]benzamide]
< 1000 nM | < 1000 nM | NC(=O)c1ccc(-n2c3ccccc3c3c(-c4nc5ccc(F)cc5[nH]4)cccc32)cc1NCCCO [Example 8, 4-[4-(6-fluoro-1H-benzimidazol-2-yl)-9H-carbazol-9-yl]-2-(3-hydroxypropylamino)benzamide]
< 1000 nM | < 1000 nM | NC(=O)c1ccc(-n2c3ccccc3c3c(-c4nc5ccc(F)cc5[nH]4)cccc32)cc1NCCF [Example 62, 4-[4-(6-fluoro-1H-benzimidazol-2-yl)-9H-carbazol-9-yl]-2-(2-fluoroethylamino)benzamide]
< 1000 nM | < 1000 nM | NC(=O)c1ccc(-n2c3ccccc3c3c(-c4nc5ccncc5[nH]4)cccc32)cc1N[C@H]1CC[C@H](O)CC1 [Example 4, 2-(4-trans-hydroxycyclohexylamino)-4-[4-(3H-imidazo[4,5-c]pyridin-2-yl)-9H-carbazol-9-yl]benzamide]
< 1000 nM | < 1000 nM | NC(=O)c1ccc(-n2c3ccccc3c3c(-c4nc5ccc(F)cc5[nH]4)cccc32)cc1NCCN1CCCC1 [Example 11, 4-[4-(6-fluoro-1H-benzimidazol-2-yl)-9H-carbazol-9-yl]-2-(2-pyrrolidin-1-ylethylamino)benzamide]
